Data as given in PubChem BioAssay (NCI).
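Values below derive from 48-hour exposures of cells grown in 96-well plates, with endpoints linearly interpolated between the two concentrations bracketing the appropriate inhibition level. The concentration for 50% growth inhibition is given as GI50. TGI: total growth inhibition.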

What was measured:
Experiment in all cases: growth of human tumour cells (NCI), 48 h
ACHN renal = system: ACHN renal
HCT-116 colon = system: HCT-116 colon
HOP-62 NSCLC = system: HOP-62 NSCLC
NCI-H226 lung = system: NCI-H226 lung
RPMI-8226 leukemia = system: RPMI-8226 leukemia
RXF 393 renal = system: RXF 393 renal
SF-295 CNS = system: SF-295 CNS
SK-MEL-5 melanoma = system: SK-MEL-5 melanoma
SNB-75 CNS = system: SNB-75 CNS
SW-620 colon = system: SW-620 colon

SMILES | GI50 (ACHN renal) [µM] | TGI (ACHN renal) [µM] | GI50 (HCT-116 colon) [µM] | TGI (HCT-116 colon) [µM] | GI50 (HOP-62 NSCLC) [µM] | TGI (HOP-62 NSCLC) [µM] | GI50 (NCI-H226 lung) [µM] | TGI (NCI-H226 lung) [µM] | GI50 (RPMI-8226 leukemia) [µM] | TGI (RPMI-8226 leukemia) [µM] | GI50 (RXF 393 renal) [µM] | TGI (RXF 393 renal) [µM] | GI50 (SF-295 CNS) [µM] | TGI (SF-295 CNS) [µM] | GI50 (SK-MEL-5 melanoma) [µM] | TGI (SK-MEL-5 melanoma) [µM] | GI50 (SNB-75 CNS) [µM] | TGI (SNB-75 CNS) [µM] | GI50 (SW-620 colon) [µM] | TGI (SW-620 colon) [µM]
CC(=O)[CH-]C(=O)c1ccccc1.CC(=O)[CH-]C(=O)c1ccccc1.CN(C)c1ccc([O-])cc1.CN(C)c1ccc([O-])cc1.Cl.[Ti+4] | 16.9 | > 31.6 | 18.1 | > 31.6 | 21.8 | > 31.6 | 18.2 | 30.9 | 16.8 | > 31.6 | 27.3 | > 31.6 | 46.3 | > 100 | 40 | > 88 | > 31.6 | > 31.6 | 18.5 | > 31.6
CCN(CC)N=Nc1c(C(N)=O)n[nH]c1C | – | > 100 | – | > 100 | – | > 100 | – | > 100 | – | > 100 | – | > 100 | – | > 100 | – | > 100 | – | > 100 | – | > 100
COC([CH2][Hg][n]1cnc2c1c(=O)n(C)c(=O)n2C)CN1C(=O)c2ccccc2S1(=O)=O (stereo not given) | > 100 | > 100 | > 100 | > 100 | > 100 | > 100 | > 100 | > 100 | > 100 | > 100 | > 100 | > 100 | > 100 | > 100 | > 100 | > 100 | > 100 | > 100 | > 100 | > 100
C=C(C)C(OC)C(O)CC1(C)CC(O)CC(C)(C2CCC3OC(C4(C)CCC(Br)C(C)(C)O4)CCC3(C)O2)O1 (stereo not given) | 26.4 | > 57.4 | 20.6 | 51.7 | 17.4 | 32.6 | 18.8 | 41.2 | 12.7 | 38.1 | 18.3 | 40.4 | 22.7 | 62.2 | 13.2 | 28.4 | 27.4 | > 61.5 | 21 | 45.4
CCOC(=O)Cn1c(C(F)(F)F)nc2nc(Cl)c(Cl)nc21 | – | > 67.9 | – | > 100 | – | 60.4 | – | > 100 | – | 26.7 | – | > 100 | – | > 100 | – | 76.9 | – | > 100 | – | > 100
Fc1[nH]nc2ccc([C@@H]3Nc4ccc5[nH]ncc5c4[C@H]4C5CCC(C5)[C@@H]34)cc12 (stereo not given in full) | 1.52 | 13.6 | 0.441 | 12.1 | 0.747 | 13.8 | 3.54 | 25.9 | 1.42 | 16.7 | 1.22 | 7.8 | 0.414 | 10.6 | 1.94 | 12.4 | 0.503 | 3.93 | 0.472 | 17.3
Cc1ccnc2c1ccc1c(C)ccnc12 | 0.357 | 10.5 | 0.418 | 13 | 0.508 | 12.6 | 0.412 | 8.21 | 0.468 | 14.3 | 0.729 | 15.1 | 0.371 | 11.7 | 0.303 | 11.8 | 0.84 | 14.6 | 0.429 | 15.9
COC1/C=C/OC2(C)Oc3c(C)c(O)c4c(O)c(c(/C=N/Nc5ccc([N+](=O)[O-])cc5[N+](=O)[O-])c(O)c4c3C2=O)NC(=O)C(C)=C/C=C/C(C)C(O)C(C)C(O)C(C)C(OC(C)=O)C1C (stereo not given) | 3.56 | 11.4 | 0.955 | 1.9 | 2.47 | 25.5 | 1.35 | 3.89 | 1.96 | 14.5 | 0.899 | 1.66 | 5.64 | 20.1 | 1.29 | 3.75 | 1.8 | 10.3 | 1.19 | 2.96
OC1CSSC1Cn1cnc2c(Nc3ccc(OCc4cccc(F)c4)c(Cl)c3)ncnc21 (stereo not given) | 1.7 | 5.67 | 0.687 | 3.84 | 0.94 | 2.79 | 3.38 | 12.8 | 1.06 | 3.74 | 5.12 | 10.7 | 3.79 | 10.4 | 0.733 | 2.88 | 4.16 | 8.8 | 1.17 | 4.54
O=C(O)CCC(NC(=O)c1ccc(Nc2nc3ccccc3nc2-c2cccs2)cc1)C(=O)O (stereo not given) | – | > 100 | – | > 100 | – | > 100 | – | > 100 | – | > 100 | – | > 100 | – | > 100 | – | > 100 | – | > 100 | – | > 100
FC(F)(F)c1cccc(Nc2nc(-c3ccccc3)nc3ncccc23)c1 | 3.3 | 11.4 | 3.62 | 13.7 | 7.18 | 22.2 | 6.25 | 35.6 | 3.09 | 9.16 | 2.21 | 5.66 | 2.61 | 8.34 | 4.04 | 30.8 | 7.85 | 31.3 | 5.2 | 24.7
Cc1nc2sccn2c1-c1csc(Nc2ccccc2Cl)n1 | 4.52 | 62.3 | 3.3 | 16.2 | 4.75 | 70.5 | 3.38 | 45.1 | 1.93 | 19.1 | 1.9 | 7.09 | 1.55 | 5.98 | 2.15 | 10.3 | 4.08 | 60.3 | 3.22 | 25.9
CN(C)c1ccc(/C=C\C2=[N+](C)c3ccccc3C2(C)C)cc1 | 1.75 | > 36.7 | 0.32 | > 32.1 | 0.842 | 21.6 | 2.68 | > 55.2 | 0.176 | > 53.5 | 1.45 | 27.7 | 0.994 | > 23.6 | 0.715 | 3 | 0.709 | 19.9 | 0.399 | 19.1
O=C(Nc1ccc(-n2ccc3c(NC(=O)c4ccccc4)nccc32)cc1)c1ccc(Cl)c(C(F)(F)F)c1 | 0.487 | 15.4 | 0.0824 | 0.989 | 3.4 | 13.2 | 6.17 | > 50 | 0.231 | 5.54 | 1.01 | 9.64 | 0.293 | 10 | 0.132 | 8.67 | 0.625 | 16.5 | 0.335 | 1.44
